In patent publication US7074789B2, “Kinase inhibitors” (Amgen Inc., priority 1999, dated 2006):
Where two headings read alike, the source gives them in different places.

How the values were obtained:
Assay type in all cases: biochemical
[1] = molecular target: T1, Lck (Homo sapiens, UniProt P06239); assay: Kinase inhibition assay (33P transfer), Lck; conditions: read-out: Lck-1
T1 construct: Kinases are expressed as either kinase domains or full length constructs; made in house
In short: (§1)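 Each kinase, expressed as a GST- or polyHis-tagged domain or full-length protein, phosphorylated plate-attached poly(Glu,Tyr) 4:1 or poly(Arg,Ser) 3:1 using 33P-ATP. Bound radioactivity was measured by scintillation after a 0.5% phosphoric acid wash.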

[2] = molecular target: T2, Zap-70 (Homo sapiens, UniProt P43403); assay: Kinase inhibition assay (33P transfer), Zap-70; conditions: read-out: Zap-1
T2 construct: Kinases are expressed as either kinase domains or full length constructs; made in house
T2 sequence (P43403 1-619): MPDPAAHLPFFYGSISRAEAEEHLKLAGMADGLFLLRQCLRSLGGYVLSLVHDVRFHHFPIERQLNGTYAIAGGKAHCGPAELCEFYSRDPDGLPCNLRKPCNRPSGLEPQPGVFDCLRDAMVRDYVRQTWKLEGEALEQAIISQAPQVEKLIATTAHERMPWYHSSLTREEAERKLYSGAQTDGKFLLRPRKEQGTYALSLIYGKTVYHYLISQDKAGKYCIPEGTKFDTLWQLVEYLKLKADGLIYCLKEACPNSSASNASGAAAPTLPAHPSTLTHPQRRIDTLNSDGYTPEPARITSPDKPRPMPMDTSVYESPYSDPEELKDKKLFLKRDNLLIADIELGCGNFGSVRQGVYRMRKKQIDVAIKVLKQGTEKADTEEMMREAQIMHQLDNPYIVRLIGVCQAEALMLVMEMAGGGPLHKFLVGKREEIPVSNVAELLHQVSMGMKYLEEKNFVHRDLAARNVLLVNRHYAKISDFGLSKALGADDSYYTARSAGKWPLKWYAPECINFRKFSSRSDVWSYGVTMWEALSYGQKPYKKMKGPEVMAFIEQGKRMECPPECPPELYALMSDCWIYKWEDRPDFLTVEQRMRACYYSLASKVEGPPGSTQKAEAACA
In short: as §1

[3] = molecular target: T3, Itk (Homo sapiens, UniProt Q08881); assay: Kinase inhibition assay (33P transfer), Itk; conditions: read-out: Itk-1
T3 construct: Kinases are expressed as either kinase domains or full length constructs; made in house
T3 sequence (Q08881 1-620): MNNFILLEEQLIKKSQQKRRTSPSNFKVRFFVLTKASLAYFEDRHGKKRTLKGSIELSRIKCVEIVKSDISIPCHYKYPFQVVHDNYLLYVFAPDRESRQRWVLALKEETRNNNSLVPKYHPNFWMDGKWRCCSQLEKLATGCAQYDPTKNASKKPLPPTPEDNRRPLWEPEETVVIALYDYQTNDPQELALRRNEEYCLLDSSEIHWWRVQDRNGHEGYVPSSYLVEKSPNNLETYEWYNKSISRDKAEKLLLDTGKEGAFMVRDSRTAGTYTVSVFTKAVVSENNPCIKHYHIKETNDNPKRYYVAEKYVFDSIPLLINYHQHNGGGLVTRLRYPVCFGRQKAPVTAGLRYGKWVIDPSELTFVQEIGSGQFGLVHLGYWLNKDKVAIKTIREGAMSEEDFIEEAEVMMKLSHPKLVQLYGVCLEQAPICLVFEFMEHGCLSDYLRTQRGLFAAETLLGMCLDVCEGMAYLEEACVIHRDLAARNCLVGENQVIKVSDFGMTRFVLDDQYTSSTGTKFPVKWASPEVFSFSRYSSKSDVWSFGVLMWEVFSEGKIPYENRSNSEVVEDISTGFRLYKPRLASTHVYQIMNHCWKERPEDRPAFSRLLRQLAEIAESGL
In short: (§2)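 GST/His-fusion kinases, E. coli or High Five expressed, affinity purified; 33P-ATP, plate-coated poly(Glu,Tyr) 4:1 or poly(Arg,Ser) 3:1; 0.5% H3PO4 wash, scintillant, LSC.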

[4] = molecular target: T4, EGFR (Homo sapiens, UniProt P00533); assay: Kinase inhibition assay (33P transfer), EGFR; conditions: Table 2, kinase inhibition class; read-out: EGFR-1
T4 construct: Kinases are expressed as either kinase domains or full length constructs; made in house
T4 sequence (P00533 25-1210, species assumed): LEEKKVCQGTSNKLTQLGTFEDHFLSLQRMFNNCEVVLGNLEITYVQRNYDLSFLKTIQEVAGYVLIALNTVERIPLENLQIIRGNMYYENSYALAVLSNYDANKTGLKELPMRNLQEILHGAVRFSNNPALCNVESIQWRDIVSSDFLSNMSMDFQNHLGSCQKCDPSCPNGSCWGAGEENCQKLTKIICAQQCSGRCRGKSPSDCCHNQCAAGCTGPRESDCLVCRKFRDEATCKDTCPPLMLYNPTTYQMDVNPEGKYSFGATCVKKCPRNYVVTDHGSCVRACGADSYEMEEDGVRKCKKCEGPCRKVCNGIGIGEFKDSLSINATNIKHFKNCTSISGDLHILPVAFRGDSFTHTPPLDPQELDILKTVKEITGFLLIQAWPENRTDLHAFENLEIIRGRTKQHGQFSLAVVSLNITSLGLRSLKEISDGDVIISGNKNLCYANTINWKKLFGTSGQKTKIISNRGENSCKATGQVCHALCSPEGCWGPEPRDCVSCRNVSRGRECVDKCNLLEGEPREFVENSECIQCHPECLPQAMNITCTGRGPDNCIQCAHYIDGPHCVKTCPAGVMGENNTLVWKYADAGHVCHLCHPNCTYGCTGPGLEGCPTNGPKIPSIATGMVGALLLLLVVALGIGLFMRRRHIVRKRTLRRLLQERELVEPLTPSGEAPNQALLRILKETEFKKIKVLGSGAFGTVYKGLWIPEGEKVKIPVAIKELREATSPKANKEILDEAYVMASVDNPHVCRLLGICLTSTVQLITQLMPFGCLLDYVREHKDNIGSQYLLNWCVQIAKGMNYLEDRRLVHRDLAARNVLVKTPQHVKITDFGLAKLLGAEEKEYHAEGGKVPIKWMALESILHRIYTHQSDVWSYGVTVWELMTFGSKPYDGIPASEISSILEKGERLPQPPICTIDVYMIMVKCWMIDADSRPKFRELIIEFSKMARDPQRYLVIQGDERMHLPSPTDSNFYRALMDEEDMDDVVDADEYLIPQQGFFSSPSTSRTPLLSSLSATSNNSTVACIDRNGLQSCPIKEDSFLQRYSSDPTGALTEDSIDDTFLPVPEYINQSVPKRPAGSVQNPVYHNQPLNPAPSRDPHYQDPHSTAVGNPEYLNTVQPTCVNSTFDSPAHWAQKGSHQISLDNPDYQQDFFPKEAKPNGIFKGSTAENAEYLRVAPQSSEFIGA
In short: as §2

[5] = molecular target: T5, ErbB2 (Homo sapiens, UniProt P04626); assay: Kinase inhibition assay (33P transfer), ErbB2; conditions: read-out: ErbB2-2
T5 construct: Kinases are expressed as either kinase domains or full length constructs; made in house
T5 sequence (P04626 23-1255, species assumed): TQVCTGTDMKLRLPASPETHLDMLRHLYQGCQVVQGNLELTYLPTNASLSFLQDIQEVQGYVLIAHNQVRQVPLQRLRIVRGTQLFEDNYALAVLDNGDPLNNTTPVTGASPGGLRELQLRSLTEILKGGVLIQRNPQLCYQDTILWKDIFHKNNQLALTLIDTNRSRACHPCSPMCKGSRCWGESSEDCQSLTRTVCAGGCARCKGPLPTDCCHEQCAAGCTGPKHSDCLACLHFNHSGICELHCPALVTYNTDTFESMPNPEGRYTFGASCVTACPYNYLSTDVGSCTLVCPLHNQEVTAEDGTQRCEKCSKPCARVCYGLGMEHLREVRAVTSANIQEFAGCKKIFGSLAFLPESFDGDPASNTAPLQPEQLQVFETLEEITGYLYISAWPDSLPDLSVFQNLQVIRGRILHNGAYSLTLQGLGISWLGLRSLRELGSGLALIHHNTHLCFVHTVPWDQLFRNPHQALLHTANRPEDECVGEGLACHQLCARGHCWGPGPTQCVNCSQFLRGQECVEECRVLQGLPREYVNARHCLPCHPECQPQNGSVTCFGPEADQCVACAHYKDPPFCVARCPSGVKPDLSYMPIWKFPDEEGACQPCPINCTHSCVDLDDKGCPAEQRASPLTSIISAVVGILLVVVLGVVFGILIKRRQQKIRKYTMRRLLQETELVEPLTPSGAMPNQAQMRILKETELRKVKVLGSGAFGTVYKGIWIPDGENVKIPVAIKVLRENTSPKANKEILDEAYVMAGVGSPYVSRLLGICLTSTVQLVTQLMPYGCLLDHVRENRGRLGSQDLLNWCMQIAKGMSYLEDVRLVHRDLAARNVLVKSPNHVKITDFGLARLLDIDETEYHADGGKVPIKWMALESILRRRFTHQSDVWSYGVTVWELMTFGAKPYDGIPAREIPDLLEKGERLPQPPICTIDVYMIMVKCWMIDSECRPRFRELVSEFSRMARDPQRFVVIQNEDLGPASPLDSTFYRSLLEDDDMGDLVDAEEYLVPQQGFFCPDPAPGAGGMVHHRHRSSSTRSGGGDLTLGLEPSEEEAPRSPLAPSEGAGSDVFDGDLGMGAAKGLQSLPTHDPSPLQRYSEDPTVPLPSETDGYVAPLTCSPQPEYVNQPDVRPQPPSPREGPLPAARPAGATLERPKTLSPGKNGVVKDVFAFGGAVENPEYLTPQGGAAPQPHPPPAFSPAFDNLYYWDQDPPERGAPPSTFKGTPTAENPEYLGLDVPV
In short: as §2

[6] = molecular target: T6, Kdr (Homo sapiens, UniProt P35968); assay: Kinase inhibition assay (33P transfer), Kdr; conditions: read-out: KDR-1
T6 construct: Kinases are expressed as either kinase domains or full length constructs; made in house
In short: as §1

[7] = molecular target: T7, c-Met (Homo sapiens, UniProt P08581); assay: Kinase inhibition assay (33P transfer), c-Met; conditions: Table 2, kinase inhibition class; read-out: Met-1
T7 construct: Kinases are expressed as either kinase domains or full length constructs; made in house
In short: as §2

[8] = molecular target: T8, AKT (Homo sapiens, UniProt Q9Y243); assay: Kinase inhibition assay (33P transfer), AKT; conditions: Table 2, kinase inhibition class; read-out: AKT3-1
T8 construct: Kinases are expressed as either kinase domains or full length constructs; made in house
In short: as §1

[9] = molecular target: T9, IGFR-1 (Homo sapiens, UniProt P08069); assay: Kinase inhibition assay, IGFR-1 (Table 2); conditions: Table 2, kinase inhibition class
T9 construct: Kinases are expressed as either kinase domains or full length constructs; made in house

[10] = molecular target: T10, PDGFRB (Homo sapiens, UniProt P09619); assay: Kinase inhibition assay (33P transfer), PDGFRB; conditions: read-out: PDGFRB-1
T10 construct: Kinases are expressed as either kinase domains or full length constructs; made in house
T10 sequence (P09619 33-1106, species assumed): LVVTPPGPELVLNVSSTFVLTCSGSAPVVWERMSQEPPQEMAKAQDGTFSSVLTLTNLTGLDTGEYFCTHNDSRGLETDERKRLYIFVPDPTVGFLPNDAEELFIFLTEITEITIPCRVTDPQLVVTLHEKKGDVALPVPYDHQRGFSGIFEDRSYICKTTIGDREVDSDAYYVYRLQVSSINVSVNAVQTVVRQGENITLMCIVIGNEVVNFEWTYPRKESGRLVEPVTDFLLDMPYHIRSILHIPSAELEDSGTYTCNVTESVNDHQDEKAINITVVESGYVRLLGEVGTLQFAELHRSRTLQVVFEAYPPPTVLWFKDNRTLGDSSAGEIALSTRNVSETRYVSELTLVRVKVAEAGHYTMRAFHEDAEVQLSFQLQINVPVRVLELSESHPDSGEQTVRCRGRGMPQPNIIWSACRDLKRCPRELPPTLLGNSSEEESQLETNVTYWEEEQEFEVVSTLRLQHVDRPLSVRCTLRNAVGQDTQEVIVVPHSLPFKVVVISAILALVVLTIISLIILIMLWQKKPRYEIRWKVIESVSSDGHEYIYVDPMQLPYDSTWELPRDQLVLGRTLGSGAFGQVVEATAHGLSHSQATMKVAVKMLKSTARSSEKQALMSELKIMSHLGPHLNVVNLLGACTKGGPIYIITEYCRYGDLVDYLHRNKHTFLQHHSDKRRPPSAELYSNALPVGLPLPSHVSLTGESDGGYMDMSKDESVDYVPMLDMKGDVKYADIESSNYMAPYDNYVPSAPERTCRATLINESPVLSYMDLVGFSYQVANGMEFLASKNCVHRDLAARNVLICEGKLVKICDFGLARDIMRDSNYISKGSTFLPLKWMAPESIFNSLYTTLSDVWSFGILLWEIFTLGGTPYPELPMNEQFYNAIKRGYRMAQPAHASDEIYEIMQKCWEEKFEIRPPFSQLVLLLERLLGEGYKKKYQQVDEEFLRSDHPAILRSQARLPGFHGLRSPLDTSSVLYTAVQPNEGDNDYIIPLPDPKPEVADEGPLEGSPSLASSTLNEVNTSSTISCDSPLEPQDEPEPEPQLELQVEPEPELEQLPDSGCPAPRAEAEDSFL

[11] = molecular target: T11, Tek (Homo sapiens, UniProt Q02763); assay: Kinase inhibition assay (33P transfer), Tek; conditions: read-out: Tek-1
T11 construct: Kinases are expressed as either kinase domains or full length constructs; made in house
T11 sequence (Q02763 23-1124, species assumed): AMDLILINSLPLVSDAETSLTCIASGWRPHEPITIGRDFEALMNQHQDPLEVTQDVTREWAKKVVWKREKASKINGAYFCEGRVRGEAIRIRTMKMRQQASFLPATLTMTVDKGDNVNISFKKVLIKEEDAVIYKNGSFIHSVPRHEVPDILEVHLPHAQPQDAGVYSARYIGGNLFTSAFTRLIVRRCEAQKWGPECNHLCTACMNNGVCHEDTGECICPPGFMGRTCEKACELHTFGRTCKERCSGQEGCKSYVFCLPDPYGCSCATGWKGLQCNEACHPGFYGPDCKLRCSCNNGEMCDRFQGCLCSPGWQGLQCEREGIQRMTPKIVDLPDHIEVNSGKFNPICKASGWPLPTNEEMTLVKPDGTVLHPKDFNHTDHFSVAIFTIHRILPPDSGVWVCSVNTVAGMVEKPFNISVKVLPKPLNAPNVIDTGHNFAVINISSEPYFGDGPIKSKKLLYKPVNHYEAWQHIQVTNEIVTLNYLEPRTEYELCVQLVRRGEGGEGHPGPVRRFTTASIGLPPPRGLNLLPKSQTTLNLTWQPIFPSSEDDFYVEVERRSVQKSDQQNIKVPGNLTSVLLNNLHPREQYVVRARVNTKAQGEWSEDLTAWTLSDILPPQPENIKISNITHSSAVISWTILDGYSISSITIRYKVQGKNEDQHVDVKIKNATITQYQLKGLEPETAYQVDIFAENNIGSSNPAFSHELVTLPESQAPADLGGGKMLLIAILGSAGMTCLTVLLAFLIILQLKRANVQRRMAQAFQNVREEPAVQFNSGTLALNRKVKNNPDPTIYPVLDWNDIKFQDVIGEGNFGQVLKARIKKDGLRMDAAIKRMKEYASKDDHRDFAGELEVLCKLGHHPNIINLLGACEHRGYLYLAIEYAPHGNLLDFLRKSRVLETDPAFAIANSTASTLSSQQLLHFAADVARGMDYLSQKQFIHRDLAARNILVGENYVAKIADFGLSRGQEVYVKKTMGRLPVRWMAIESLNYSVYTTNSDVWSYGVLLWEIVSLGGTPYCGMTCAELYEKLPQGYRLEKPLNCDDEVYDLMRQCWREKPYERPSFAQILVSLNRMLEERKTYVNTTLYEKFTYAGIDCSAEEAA
In short: as §2

[12] = molecular target: T9, IGFR-1; assay: Kinase inhibition assay (33P transfer), IGFR-1; conditions: Table 2, kinase inhibition class

T1 sequence (P06239 whole entry, species assumed, the tested form may be a part): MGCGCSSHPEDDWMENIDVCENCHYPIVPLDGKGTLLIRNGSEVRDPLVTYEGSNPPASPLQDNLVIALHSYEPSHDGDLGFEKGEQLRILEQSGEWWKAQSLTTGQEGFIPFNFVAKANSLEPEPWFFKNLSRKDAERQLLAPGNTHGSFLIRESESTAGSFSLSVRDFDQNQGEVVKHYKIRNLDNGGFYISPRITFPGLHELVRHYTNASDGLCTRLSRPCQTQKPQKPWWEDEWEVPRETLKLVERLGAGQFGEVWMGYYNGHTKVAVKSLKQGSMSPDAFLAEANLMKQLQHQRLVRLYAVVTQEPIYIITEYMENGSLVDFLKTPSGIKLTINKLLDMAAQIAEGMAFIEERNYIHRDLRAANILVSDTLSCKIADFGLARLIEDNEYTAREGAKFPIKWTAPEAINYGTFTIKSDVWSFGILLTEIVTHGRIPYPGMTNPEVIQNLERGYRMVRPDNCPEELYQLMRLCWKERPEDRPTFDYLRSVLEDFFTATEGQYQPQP

| Structure (SMILES) | IC50 [1] | IC50 [2] | IC50 [3] | IC50 [4] | IC50 [5] | IC50 [6] | IC50 [7] | IC50 [8] | IC50 [9] | IC50 [10] | IC50 ([1]; Table 3) | IC50 ([2]; Table 3) | IC50 ([3]; Table 3) | IC50 ([6]; Table 3) | IC50 [11] | IC50 [12] |
| --- | --- | --- | --- | --- | --- | --- | --- | --- | --- | --- | --- | --- | --- | --- | --- | --- |
| COC(=O)c1ccc(-c2cc(Nc3ncnc(Nc4cccc(CC(=O)O)c4)n3)[nH]n2)cc1 [Compound 604] | 0.898 to 5.39 µM | 5.39 to 7.86 µM | 0.898 to 5.39 µM | 0.898 to 5.39 µM | 0.898 to 5.39 µM | 0.898 to 5.39 µM | < 0.898 µM | 5.39 to 7.86 µM | 0.898 to 5.39 µM | 0.898 to 5.39 µM | – | – | – | – | – | – |
| CC(C)(C)OC(=O)Nc1ccc(Nc2ncnc(-c3ccccc3)n2)cc1 [Compound 19] | – | – | – | > 12.4 µM | – | – | > 12.4 µM | > 12.4 µM | – | – | > 12.4 µM | 6.6 to 9.63 µM | > 12.4 µM | 6.6 to 9.63 µM | > 12.4 µM | 6.6 to 9.63 µM |
| COc1ccc(CNc2nc3ccccc3n2-c2ncnc(Nc3cc(OC)c(OC)c(OC)c3)n2)cc1OC [Compound 596] | > 8.28 µM | > 8.28 µM | > 8.28 µM | 4.42 to 6.44 µM | 0.736 to 4.42 µM | 6.44 to 8.28 µM | > 8.28 µM | > 8.28 µM | > 8.28 µM | 4.42 to 6.44 µM | – | – | – | – | – | – |
| COc1ccc(Nc2ncnc(Nc3ccc(OCc4ccccc4)cc3)n2)cc1 [Compound 161] | – | – | – | > 11.3 µM | – | – | > 11.3 µM | 6.01 to 8.76 µM | – | – | > 11.3 µM | > 11.3 µM | > 11.3 µM | 1 to 6.01 µM | 6.01 to 8.76 µM | > 11.3 µM |
| COc1cc(Nc2ncnc(-n3c(NCc4ccc(N(C)C)cc4)nc4ccccc43)n2)cc(OC)c1OC [Compound 593] | 0.76 to 4.56 µM | > 8.55 µM | > 8.55 µM | 4.56 to 6.65 µM | 4.56 to 6.65 µM | 0.76 to 4.56 µM | > 8.55 µM | > 8.55 µM | < 0.76 µM | 0.76 to 4.56 µM | – | – | – | – | – | – |
| COc1cccc(Nc2ncnc(Nc3ccc(OCc4ccccc4)cc3)n2)c1 [Compound 160] | – | – | – | 1 to 6.01 µM | – | – | 8.76 to 11.3 µM | 8.76 to 11.3 µM | – | – | > 11.3 µM | > 11.3 µM | > 11.3 µM | > 11.3 µM | > 11.3 µM | > 11.3 µM |

Next, values leading:

| IC50 [1] | IC50 [2] | IC50 [3] | IC50 [4] | IC50 [5] | IC50 [6] | IC50 [7] | IC50 [8] | IC50 [9] | IC50 [10] | IC50 ([1]; Table 3) | IC50 ([2]; Table 3) | IC50 ([3]; Table 3) | IC50 ([6]; Table 3) | IC50 [11] | IC50 [12] | Structure (SMILES) |
| --- | --- | --- | --- | --- | --- | --- | --- | --- | --- | --- | --- | --- | --- | --- | --- | --- |
| – | – | – | > 17 µM | – | – | > 17 µM | > 17 µM | – | – | 9.08 to 13.2 µM | > 17 µM | > 17 µM | 9.08 to 13.2 µM | > 17 µM | > 17 µM | Oc1cccc(Nc2ncnc(-c3ccccc3)n2)c1 [Compound 18] |
| – | – | – | > 16.2 µM | – | – | > 16.2 µM | > 16.2 µM | – | – | > 16.2 µM | 12.6 to 16.2 µM | > 16.2 µM | > 16.2 µM | > 16.2 µM | > 16.2 µM | COc1ccc(Nc2ncnc(-c3ccccc3)n2)cc1 [Compound 14] |
| – | – | – | > 17 µM | – | – | > 17 µM | > 17 µM | – | – | 9.08 to 13.2 µM | > 17 µM | > 17 µM | 1.51 to 9.08 µM | > 17 µM | > 17 µM | Oc1ccc(Nc2ncnc(-c3ccccc3)n2)cc1 [Compound 11] |
| – | – | – | > 16.2 µM | – | – | > 16.2 µM | > 16.2 µM | – | – | > 16.2 µM | > 16.2 µM | > 16.2 µM | 12.6 to 16.2 µM | > 16.2 µM | > 16.2 µM | COc1ccccc1Nc1ncnc(-c2ccccc2)n1 [Compound 12] |
